Laboratory results: patent US8828985B2, “Carbamate and urea inhibitors of 11-beta-hydroxysteroid dehydrogenase 1” (Vitae Pharmaceuticals, Inc., priority 2008, dated 2014)

Biological target: human 11β-HSD1 (Homo sapiens, UniProt P28845)
Experiment: biochemical
Settings: for inhibition at 0.1 µM / inhibition at 0.111 µM: 1.5 h; for inhibition at 0.1 µM: read-out: Biological Test Example 2 Average % inhibition at 100 nm, at 100 nm; for inhibition at 0.111 µM: read-out: Biological Test Example 2 Average % inhibition at 111 nm, at 111 nm; for IC50: Biological Test Example 2 IC50 Range, microsomes from CHO cells overexpressing human 11β-HSD1, SPA

Chain of human 11β-HSD1 (P28845 whole entry): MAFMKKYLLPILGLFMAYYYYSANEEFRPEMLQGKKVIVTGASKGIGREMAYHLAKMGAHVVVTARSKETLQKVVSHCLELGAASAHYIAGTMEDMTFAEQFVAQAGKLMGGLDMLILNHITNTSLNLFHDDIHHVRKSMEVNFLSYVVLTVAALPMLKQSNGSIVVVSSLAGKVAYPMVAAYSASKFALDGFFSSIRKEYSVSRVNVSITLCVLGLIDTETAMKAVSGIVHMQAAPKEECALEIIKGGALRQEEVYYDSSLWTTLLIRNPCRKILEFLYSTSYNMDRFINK

| SMILES | inhibition at 0.1 µM [%] | inhibition at 0.111 µM [%] | IC50 [nM] |
| --- | --- | --- | --- |
| NC(=O)C1CC2CCCC(C1)C2OC(=O)N1CC[C@@H](Nc2ccc(C(F)(F)F)cn2)C1 (stereo partly drawn) [Example 71, (3R)-3-carbamoylbicyclo[3.3.1]nonan-9-yl 3-(5-(trifluoromethyl)pyridin-2-ylamino)pyrrolidine-1-carboxylate] | 84.2 | 82.6 | < 100 |
| N#Cc1cnc(N[C@@H]2CCN(C(=O)O[C@H]3C4CC5C[C@@H]3C[C@](C(N)=O)(C5)C4)C2)s1 [Example 72, (3R) (1-carbamoyl-4-adamantyl) 3-(5-cyanothiazol-2-ylamino)pyrrolidine-1-carboxylate] | 97.3 | 97.3 | < 100 |
| N#Cc1cccnc1N[C@@H]1CCN(C(=O)O[C@H]2C3CC4CC2C[C@](C#N)(C4)C3)C1 [Example 73, (3R) (trans-1-cyano-4-adamantyl) 3-(3-cyanopyridin-2-ylamino)pyrrolidine-1-carboxylate] | 94.6 | – | < 100 |
| CN(c1ccc(C#N)cn1)C1CCN(C(=O)O[C@H]2C3CC4CC2C[C@](C(N)=O)(C4)C3)C1 (stereo partly drawn) [Example 74, (trans-1-carbamoyl-4-adamantyl) 3-((5-cyanopyridin-2-yl)(methyl)amino)pyrrolidine-1-carboxylate] | 97.8 | 96.5 | < 100 |
| N#Cc1ccc(N2CCCC23CCN(C(=O)O[C@H]2C4CC5CC2C[C@](C(N)=O)(C5)C4)C3)nc1 (stereo partly drawn) [Example 75, (trans-1-carbamoyl-4-adamantyl) 1-(5-cyanopyridin-2-yl)-1,7-diazaspiro[4.4]nonane-7-carboxylate] | 98.8 | 97.7 | < 100 |
| N#Cc1ccc(N2CCC3CN(C(=O)O[C@H]4C5CC6CC4C[C@](C(N)=O)(C6)C5)CC32)nc1 (stereo partly drawn) [Example 76, (trans-1-carbamoyl-4-adamantyl) 1-(5-cyanopyridin-2-yl)hexahydropyrrolo[3,4-b]pyrrole-5(1H)-carboxylate] | 97.9 | 101 | < 100 |
| N#Cc1ccc(N[C@@H]2CCN(C(=O)O[C@H]3C4CC5CC3C[C@](O)(C5)C4)C2)cc1 [Example 78, (R)-(trans-1-hydroxy-4-adamantyl) 3-(4-cyanophenylamino)pyrrolidine-1-carboxylate] | 80.1 | – | < 100 |
| N#Cc1cccnc1N[C@@H]1CCN(C(=O)O[C@H]2C3CC4CC2C[C@](O)(C4)C3)C1 [Example 80, (R)-(trans-1-hydroxy-4-adamantyl) 3-(3-cyanopyridin-2-ylamino)pyrrolidine-1-carboxylate] | – | – | < 100 |
| N#Cc1cncc(N[C@@H]2CCN(C(=O)O[C@H]3C4CC5CC3C[C@](O)(C5)C4)C2)n1 [Example 81, (R)-(trans-1-hydroxy-4-adamantyl) 3-(6-cyanopyrazin-2-ylamino)pyrrolidine-1-carboxylate] | 54.4 | – | < 100 |
| N#Cc1cnc(N[C@@H]2CCN(C(=O)O[C@H]3C4CC5CC3C[C@](O)(C5)C4)C2)s1 [Example 82, (R)-(trans-1-hydroxy-4-adamantyl) 3-(5-cyanothiazol-2-ylamino)pyrrolidine-1-carboxylate] | 86.6 | – | < 100 |
| Cc1ccc(C#N)c(N[C@@H]2CCN(C(=O)O[C@H]3C4CC5CC3C[C@](O)(C5)C4)C2)n1 [Example 83, (R)-(trans-1-hydroxy-4-adamantyl) 3-(3-cyano-6-methylpyridin-2-ylamino)pyrrolidine-1-carboxylate] | 98.5 | – | < 100 |
| Cc1nc(N[C@@H]2CCN(C(=O)O[C@H]3C4CC5CC3C[C@](O)(C5)C4)C2)ccc1C#N [Example 84, (R)-(trans-1-hydroxy-4-adamantyl) 3-(5-cyano-6-methylpyridin-2-ylamino)pyrrolidine-1-carboxylate] | 71.6 | – | < 100 |
| O=C(O[C@H]1C2CC3CC1C[C@](O)(C3)C2)N1CC[C@@H](Nc2ncnc3ccccc23)C1 [Example 85, (R)-(trans-1-hydroxy-4-adamantyl) 3-(quinazolin-4-ylamino)pyrrolidine-1-carboxylate] | 64 | – | < 100 |
| N#Cc1cc(Cl)cnc1N[C@@H]1CCN(C(=O)O[C@H]2C3CC4CC2C[C@](O)(C4)C3)C1 [Example 86, (R)-(trans-1-hydroxy-4-adamantyl) 3-(5-chloro-3-cyanopyridin-2-ylamino)pyrrolidine-1-carboxylate] | 101 | – | < 100 |
| N#Cc1cnc(N[C@@H]2CCN(C(=O)O[C@H]3C4CC5CC3C[C@](O)(C5)C4)C2)c(Cl)c1 [Example 87, (R)-(trans-1-hydroxy-4-adamantyl) 3-(3-chloro-5-cyanopyridin-2-ylamino)pyrrolidine-1-carboxylate] | 100 | – | < 100 |
| Cc1nccc2nc(N[C@@H]3CCN(C(=O)O[C@H]4C5CC6CC4C[C@](O)(C6)C5)C3)ccc12 [Example 88, (R)-(trans-1-hydroxy-4-adamantyl) 3-(5-methyl-1,6-naphthyridin-2-ylamino)pyrrolidine-1-carboxylate] | 69.4 | – | < 100 |
| CN(C)C(=O)c1cccnc1N[C@@H]1CCN(C(=O)O[C@H]2C3CC4CC2C[C@](O)(C4)C3)C1 [Example 89, (R)-(trans-1-hydroxy-4-adamantyl) 3-(3-(dimethylcarbamoyl)pyridin-2-ylamino)pyrrolidine-1-carboxylate] | 39.1 | – | > 100 |
| N#Cc1ccc2nc(N[C@@H]3CCN(C(=O)O[C@H]4C5CC6CC4C[C@](O)(C6)C5)C3)ccc2c1 [Example 90, (R)-(trans-1-hydroxy-4-adamantyl) 3-(6-cyanoquinolin-2-ylamino)pyrrolidine-1-carboxylate] | 95.6 | – | < 100 |
| N#Cc1ccc2nc(N[C@@H]3CCN(C(=O)O[C@H]4C5CC6CC4C[C@](O)(C6)C5)C3)cnc2c1 [Example 91, (R)-(trans-1-hydroxy-4-adamantyl) 3-(6-cyanoquinoxalin-2-ylamino)pyrrolidine-1-carboxylate] | 63.6 | – | < 100 |
| NC(=O)c1cnc(N[C@@H]2CCN(C(=O)O[C@H]3C4CC5CC3C[C@](O)(C5)C4)C2)c(Cl)c1 [Example 92, (R)-(trans-1-hydroxy-4-adamantyl) 3-(5-carbamoyl-3-chloropyridin-2-ylamino)pyrrolidine-1-carboxylate] | 60.2 | – | < 100 |
| O=C(O[C@H]1C2CC3CC1C[C@](O)(C3)C2)N1CC[C@@H](Nc2ncc(Cl)cc2[N+](=O)[O-])C1 [Example 93, (R)-(trans-1-hydroxy-4-adamantyl) 3-(5-chloro-3-nitropyridin-2-ylamino)pyrrolidine-1-carboxylate] | – | – | < 100 |
| N#Cc1ccc2nc(N[C@@H]3CCN(C(=O)O[C@H]4C5CC6CC4C[C@](O)(C6)C5)C3)sc2c1 [Example 94, (R)-(trans-1-hydroxy-4-adamantyl) 3-(6-cyanobenzo[d]thiazol-2-ylamino)pyrrolidine-1-carboxylate] | 90.8 | – | < 100 |
| O=C(O[C@H]1C2CC3CC1C[C@](O)(C3)C2)N1CC[C@@H](Nc2ccc3cc(Cl)ccc3n2)C1 [Example 95, (R)-(trans-1-hydroxy-4-adamantyl) 3-(6-chloroquinolin-2-ylamino)pyrrolidine-1-carboxylate] | 90.6 | – | < 100 |
| O=C(O[C@H]1C2CC3CC1C[C@](O)(C3)C2)N1CC[C@@H](Nc2cnc3cc(Cl)ccc3n2)C1 [Example 96, (R)-(trans-1-hydroxy-4-adamantyl) 3-(6-chloroquinoxalin-2-ylamino)pyrrolidine-1-carboxylate] | 101 | – | < 100 |
| O=C(O[C@H]1C2CC3CC1C[C@](O)(C3)C2)N1CC[C@@H](Nc2nc3ccc(Cl)cc3s2)C1 [Example 97, (R)-(trans-1-hydroxy-4-adamantyl) 3-(6-chlorobenzo[d]thiazol-2-ylamino)pyrrolidine-1-carboxylate] | 91.1 | – | < 100 |
| CNC(=O)c1cc(Cl)cnc1N[C@@H]1CCN(C(=O)O[C@H]2C3CC4CC2C[C@](O)(C4)C3)C1 [Example 98, (R)-(trans-1-hydroxy-4-adamantyl) 3-(5-chloro-3-(methylcarbamoyl)pyridin-2-ylamino)pyrrolidine-1-carboxylate] | 91.1 | – | < 100 |
| CN(C(=O)c1ccc(N[C@@H]2CCN(C(=O)O[C@H]3C4CC5CC3C[C@](O)(C5)C4)C2)nc1)C(C)(C)C [Example 99, (trans-1-hydroxy-4-adamantyl) 3-(5-(tert-butyl(methyl)carbamoyl)pyridin-2-ylamino)pyrrolidine-1-carboxylate] | 21.8 | – | > 100 |
| CN(C(=O)c1cccnc1N[C@@H]1CCN(C(=O)O[C@H]2C3CC4CC2C[C@](O)(C4)C3)C1)C(C)(C)C [Example 100, (trans-1-hydroxy-4-adamantyl) 3-(3-(tert-butyl(methyl)carbamoyl)pyridin-2-ylamino)pyrrolidine-1-carboxylate] | 46.8 | – | < 100 |
| O=C(NC1CC1)c1cc(Cl)cnc1N[C@@H]1CCN(C(=O)O[C@H]2C3CC4CC2C[C@](O)(C4)C3)C1 [Example 101, (R)-(trans-1-hydroxy-4-adamantyl) 3-(5-chloro-3-(cyclopropylcarbamoyl)pyridin-2-ylamino)pyrrolidine-1-carboxylate] | 82.6 | – | < 100 |
| CC(C)(C)NC(=O)c1cc(Cl)cnc1N[C@@H]1CCN(C(=O)O[C@H]2C3CC4CC2C[C@](O)(C4)C3)C1 [Example 102, (R)-(trans-1-hydroxy-4-adamantyl) 3-(3-(tert-butylcarbamoyl)-5-chloropyridin-2-ylamino)pyrrolidine-1-carboxylate] | 78.7 | – | < 100 |
